Laboratory results from paper PMC10218596 (International Journal of Molecular Sciences, 2023).
Where a SMILES comes first, the peptide text is derived from it. Bridges are numbered along the chain shown (N, C = ends).

Columns and labels:
hα6/α3β4Y133H = target: T1, hα6/α3β4Y133H (Homo sapiens, UniProt P30926+Q15825, Y159H); assay type: cell-based
T1 construct: splicing the N-terminal extracellular domain of the α6 subunit with the α3 subunit; mutant made by PCR mutagenesis; host or cells: Xenopus laevis oocytes injected with cRNA

hα6/α3β4V115I = target: T2, hα6/α3β4V115I (Homo sapiens, UniProt P30926+Q15825, V141I); experiment: cell-based
T2 construct: splicing the N-terminal extracellular domain of the α6 subunit with the α3 subunit; mutant made by PCR mutagenesis; host or cells: Xenopus laevis oocytes injected with cRNA
T2 sequence (Q15825 26-239 limits assumed): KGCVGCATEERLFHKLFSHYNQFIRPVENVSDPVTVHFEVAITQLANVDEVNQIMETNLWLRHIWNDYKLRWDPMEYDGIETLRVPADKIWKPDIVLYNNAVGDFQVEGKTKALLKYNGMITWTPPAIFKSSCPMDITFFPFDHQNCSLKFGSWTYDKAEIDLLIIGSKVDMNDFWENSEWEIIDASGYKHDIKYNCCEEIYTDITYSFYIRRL
T2 sequence (P30926 22-498 V141I): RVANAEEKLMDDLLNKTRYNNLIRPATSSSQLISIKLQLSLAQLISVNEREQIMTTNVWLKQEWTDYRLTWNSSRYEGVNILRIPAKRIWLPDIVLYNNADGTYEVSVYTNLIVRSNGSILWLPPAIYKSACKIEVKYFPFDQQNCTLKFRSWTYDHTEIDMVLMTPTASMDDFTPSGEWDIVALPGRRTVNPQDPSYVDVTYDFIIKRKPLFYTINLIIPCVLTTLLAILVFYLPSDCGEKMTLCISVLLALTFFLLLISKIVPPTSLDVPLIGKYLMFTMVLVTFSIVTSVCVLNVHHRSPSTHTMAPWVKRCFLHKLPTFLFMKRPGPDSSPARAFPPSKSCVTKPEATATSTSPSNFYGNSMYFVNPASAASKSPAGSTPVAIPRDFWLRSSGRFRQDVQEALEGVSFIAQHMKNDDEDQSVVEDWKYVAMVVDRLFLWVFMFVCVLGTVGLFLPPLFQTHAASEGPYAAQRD

hα6/α3β4L107V, V115I = target: T3, hα6/α3β4L107V, V115I (Homo sapiens, UniProt P30926+Q15825, L133V/V141I); experiment: cell-based; assay type: cell-based
T3 construct: formed by splicing the N-terminal extracellular domain of the α6 subunit with the α3 subunit; fusion partner: remainder of the human α3 subunit (CHRNA3); expressed in transfected cells; host or cells: Xenopus laevis oocytes injected with cRNA
T3 sequence (Q15825 26-239 limits assumed): as the sequence (Q15825 26-239 limits assumed) above
T3 sequence (P30926 22-498 L133V/V141I): as the sequence (P30926 22-498 V141I) above, with L112V counted along it

[1] = target: T4, h[α6V32L, K61R/α3]β4L107V,V115I (Homo sapiens, UniProt P30926+P32297+Q15825, K94R/L133V/V141I/V65L); experiment: cell-based
T4 construct: formed by splicing the N-terminal extracellular domain of the α6 subunit with the α3 subunit; fusion partner: remainder of the human α3 subunit (CHRNA3); expressed in transfected cells; host or cells: Xenopus laevis oocytes injected with cRNA
T4 sequence (Q15825+P32297 fused with the stated changes): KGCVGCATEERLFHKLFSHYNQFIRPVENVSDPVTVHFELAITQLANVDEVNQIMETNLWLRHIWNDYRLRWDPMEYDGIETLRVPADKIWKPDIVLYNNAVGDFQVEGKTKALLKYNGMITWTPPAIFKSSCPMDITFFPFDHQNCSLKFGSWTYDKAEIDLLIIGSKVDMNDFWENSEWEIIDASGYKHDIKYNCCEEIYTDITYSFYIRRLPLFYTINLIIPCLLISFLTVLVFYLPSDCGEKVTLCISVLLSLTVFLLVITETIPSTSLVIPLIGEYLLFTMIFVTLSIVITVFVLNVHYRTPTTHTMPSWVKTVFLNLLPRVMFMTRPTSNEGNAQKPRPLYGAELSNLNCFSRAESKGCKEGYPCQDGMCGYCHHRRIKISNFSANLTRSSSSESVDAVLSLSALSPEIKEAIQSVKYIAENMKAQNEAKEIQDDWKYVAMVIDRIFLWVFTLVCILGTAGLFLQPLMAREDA
T4 sequence (P30926 22-498 L133V/V141I): as the sequence (P30926 22-498 V141I) above, with L112V counted along it

hα6/α3β4L107V = target: T5, hα6/α3β4L107V (Homo sapiens, UniProt P30926+Q15825, L133V); experiment: cell-based
T5 construct: splicing the N-terminal extracellular domain of the α6 subunit with the α3 subunit; mutant made by PCR mutagenesis; host or cells: Xenopus laevis oocytes injected with cRNA
T5 sequence (Q15825 26-239 limits assumed): as the sequence (Q15825 26-239 limits assumed) above
T5 sequence (P30926 22-498 L133V): as the sequence (P30926 22-498 V141I) above, with L112V, I120V counted along it

hα6/α3β4Q33E = target: T6, hα6/α3β4Q33E (Homo sapiens, UniProt P30926+Q15825, Q59E); assay type: cell-based
T6 construct: splicing the N-terminal extracellular domain of the α6 subunit with the α3 subunit; mutant made by PCR mutagenesis; host or cells: Xenopus laevis oocytes injected with cRNA

h[α6N110D/α3]β4 = target: T7, h[α6N110D/α3]β4 (Homo sapiens, UniProt P30926+P32297+Q15825, N143D); assay type: cell-based
T7 construct: formed by splicing the N-terminal extracellular domain of the α6 subunit with the α3 subunit; fusion partner: remainder of the human α3 subunit (CHRNA3); expressed in transfected cells; host or cells: Xenopus laevis oocytes injected with cRNA

h[α6Q14R/α3]β4 [2] = assay type: cell-based, human
h[α6Q14R/α3]β4 [3] = target: T8, h[α6Q14R/α3]β4 (Homo sapiens, UniProt P30926+P32297+Q15825, Q47R); assay type: cell-based
T8 construct: formed by splicing the N-terminal extracellular domain of the α6 subunit with the α3 subunit; human nAChR α3 subunit (CHRNA3); expressed in transfected cells; host or cells: Xenopus laevis oocytes injected with cRNA (plasmids from the University of Utah)

h[α6V32L/α3]β4 [4] = experiment: cell-based; design: species or system human
h[α6V32L/α3]β4 [5] = target: T9, h[α6V32L/α3]β4 (Homo sapiens, UniProt P30926+P32297+Q15825, V65L); experiment: cell-based
T9 construct: formed by splicing the N-terminal extracellular domain of the α6 subunit with the α3 subunit; human nAChR α3 subunit (CHRNA3); expressed in transfected cells; host or cells: Xenopus laevis oocytes injected with cRNA (plasmids from the University of Utah)

hα6/α3β4R70C = target: T10, hα6/α3β4R70C (Homo sapiens, UniProt P30926+Q15825, R96C); assay type: cell-based
T10 construct: splicing the N-terminal extracellular domain of the α6 subunit with the α3 subunit; mutant made by PCR mutagenesis; host or cells: Xenopus laevis oocytes injected with cRNA

human α6/α3β2β3 nAChR = details: cited from earlier work
h[α6K61R/α3]β4 = target: T11, h[α6K61R/α3]β4 (Homo sapiens, UniProt P30926+P32297+Q15825, K94R); experiment: cell-based
T11 construct: formed by splicing the N-terminal extracellular domain of the α6 subunit with the α3 subunit; human nAChR α3 subunit (CHRNA3); expressed in transfected cells; host or cells: Xenopus laevis oocytes injected with cRNA (plasmids from the University of Utah)
T11 sequence (Q15825+P32297 fused with the stated changes): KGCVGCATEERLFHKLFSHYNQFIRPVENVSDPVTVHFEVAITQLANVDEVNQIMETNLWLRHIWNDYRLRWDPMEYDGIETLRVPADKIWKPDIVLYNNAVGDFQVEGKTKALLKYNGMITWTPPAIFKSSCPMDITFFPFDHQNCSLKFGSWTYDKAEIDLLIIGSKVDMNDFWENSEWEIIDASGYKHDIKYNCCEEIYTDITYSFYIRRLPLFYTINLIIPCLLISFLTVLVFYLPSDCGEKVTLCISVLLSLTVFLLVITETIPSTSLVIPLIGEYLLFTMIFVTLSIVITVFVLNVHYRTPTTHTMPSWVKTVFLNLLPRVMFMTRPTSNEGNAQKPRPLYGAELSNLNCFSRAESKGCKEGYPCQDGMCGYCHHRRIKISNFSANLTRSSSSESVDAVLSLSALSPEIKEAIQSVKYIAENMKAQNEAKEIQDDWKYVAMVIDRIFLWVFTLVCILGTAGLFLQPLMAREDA
T11 sequence (P30926 22-498): as the sequence (P30926 22-498 V141I) above, with I120V counted along it

h[α6S10A/α3]β4 [6] = assay type: cell-based, human
h[α6S10A/α3]β4 [7] = target: T12, h[α6S10A/α3]β4 (Homo sapiens, UniProt P30926+P32297+Q15825, S43A); assay type: cell-based
T12 construct: formed by splicing the N-terminal extracellular domain of the α6 subunit with the α3 subunit; human nAChR α3 subunit (CHRNA3); expressed in transfected cells; host or cells: Xenopus laevis oocytes injected with cRNA (plasmids from the University of Utah)

h[α6R63C/α3]β4 [8] = target: T13, h[α6R63C/α3]β4 (Homo sapiens, UniProt P30926+P32297+Q15825, R96C); assay type: cell-based
T13 construct: formed by splicing the N-terminal extracellular domain of the α6 subunit with the α3 subunit; human nAChR α3 subunit (CHRNA3); expressed in transfected cells; host or cells: Xenopus laevis oocytes injected with cRNA (plasmids from the University of Utah)

h[α6R63C/α3]β4 [9] = assay type: cell-based, human
hα6/α3β4A37S = target: T14, hα6/α3β4A37S (Homo sapiens, UniProt P30926+Q15825, A63S); assay type: cell-based
T14 construct: splicing the N-terminal extracellular domain of the α6 subunit with the α3 subunit; mutant made by PCR mutagenesis; host or cells: Xenopus laevis oocytes injected with cRNA

hα6/α3β4M160K = target: T15, hα6/α3β4M160K (Homo sapiens, UniProt P30926+Q15825, M186K); assay type: cell-based
T15 construct: formed by splicing the N-terminal extracellular domain of the α6 subunit with the α3 subunit; human nAChR α3 subunit (CHRNA3); expressed in transfected cells; host or cells: Xenopus laevis oocytes injected with cRNA (plasmids from the University of Utah)

h[α6N58K/α3]β4 = target: T16, h[α6N58K/α3]β4 (Homo sapiens, UniProt P30926+P32297+Q15825, N91K); assay type: cell-based
T16 construct: formed by splicing the N-terminal extracellular domain of the α6 subunit with the α3 subunit; human nAChR α3 subunit (CHRNA3); expressed in transfected cells; host or cells: Xenopus laevis oocytes injected with cRNA (plasmids from the University of Utah)
T16 sequence (Q15825+P32297 fused with the stated changes): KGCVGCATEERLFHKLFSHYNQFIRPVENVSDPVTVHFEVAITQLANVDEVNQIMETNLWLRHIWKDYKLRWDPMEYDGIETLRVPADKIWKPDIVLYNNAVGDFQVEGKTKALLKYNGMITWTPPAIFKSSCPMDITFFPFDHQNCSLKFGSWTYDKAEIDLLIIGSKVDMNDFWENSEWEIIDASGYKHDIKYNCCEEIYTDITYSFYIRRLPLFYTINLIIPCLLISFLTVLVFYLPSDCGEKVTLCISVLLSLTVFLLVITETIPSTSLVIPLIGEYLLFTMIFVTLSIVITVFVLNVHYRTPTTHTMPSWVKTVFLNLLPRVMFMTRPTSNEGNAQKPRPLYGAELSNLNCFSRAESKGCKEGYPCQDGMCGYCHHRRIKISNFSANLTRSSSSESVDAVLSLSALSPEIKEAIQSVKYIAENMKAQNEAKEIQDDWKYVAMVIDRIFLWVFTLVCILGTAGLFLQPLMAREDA
T16 sequence (P30926 22-498): as the sequence (P30926 22-498 V141I) above, with I120V counted along it

[10] = read-out: inhibition of the current response to 100 μM ACh

Structure (SMILES): CC(C)C[C@@H]1NC(=O)[C@H](CC(=O)O)NC(=O)[C@@H]2CCCN2C(=O)[C@H](Cc2c[nH]cn2)NC(=O)[C@H](CCCCN)NC(=O)[C@H](CC(N)=O)NC(=O)[C@H](CCCNC(=N)N)NC(=O)[C@@H]2CSSC[C@H](NC(=O)CN)C(=O)N[C@@H](CSSC[C@@H](C(N)=O)NC1=O)C(=O)N[C@@H](CO)C(=O)N[C@@H](CC(=O)O)C(=O)N1CCC[C@H]1C(=O)N1CCC[C@H]1C(=O)N2 [TxIB] (H-GCCSDPPCRNKHPDLC-NH2; disulfide 2-8, 3-16)
- Hill Slope (hα6/α3β4Y133H): 0.8 (0.7–1.0)
- Ratio (change in TxIB IC50 relative to hα6/α3β4) (hα6/α3β4Y133H): 1.3
- Hill Slope (hα6/α3β4V115I): 0.8 (0.7–0.9)
- Ratio (change in TxIB IC50 relative to hα6/α3β4) (hα6/α3β4V115I): 2.8
- activity at 10 µM (hα6/α3β4V115I; [10]): 20.1 ± 3.86%
- Hill Slope (hα6/α3β4L107V, V115I): 0.8 (0.8–0.9)
- Ratio (change in TxIB IC50 relative to hα6/α3β4) (hα6/α3β4L107V, V115I): 4.9
- time to full restoration of currents blocked by TxIB (hα6/α3β4L107V, V115I): ≤ 1 min
- activity at 10 µM (hα6/α3β4L107V, V115I; [10]): 25.1 ± 11.2%
- Hill Slope [1]: 0.8 (0.6–0.9)
- Ratio (change in TxIB IC50 relative to hα6/α3β4) [1]: 42
- time to full restoration of currents blocked by TxIB [1]: ≤ 1 min
- activity at 10 µM [1, 10]: 60.2 ± 8.66%
- Hill Slope (hα6/α3β4L107V): 0.8 (0.7–0.9)
- Ratio (change in TxIB IC50 relative to hα6/α3β4) (hα6/α3β4L107V): 3.3
- activity at 10 µM (hα6/α3β4L107V; [10]): 21.7 ± 4.29%
- Hill Slope (hα6/α3β4Q33E): 0.9 (0.7–1.0)
- Ratio (change in TxIB IC50 relative to hα6/α3β4) (hα6/α3β4Q33E): 0.8
- Hill Slope (h[α6N110D/α3]β4): 0.9 (0.8–1.0)
- Ratio (change in TxIB IC50 relative to hα6/α3β4) (h[α6N110D/α3]β4): 1.6
- Ratio (change in TxIB IC50 relative to hα6/α3β4) (h[α6Q14R/α3]β4 [2]): 1
- Hill Slope (h[α6Q14R/α3]β4 [3]): 0.9 (0.7–1.2)
- Ratio (change in TxIB IC50 relative to hα6/α3β4) (h[α6V32L/α3]β4 [4]): 4.2
- Hill Slope (h[α6V32L/α3]β4 [5]): 0.7 (0.7–0.8)
- activity at 10 µM (h[α6V32L/α3]β4 [5]; [10]): 25.3 ± 5.23%
- Hill Slope (hα6/α3β4R70C): 0.8 (0.7–1.0)
- Ratio (change in TxIB IC50 relative to hα6/α3β4) (hα6/α3β4R70C): 0.9
- blocking effect (human α6/α3β2β3 nAChR): significant blocking effect
- Hill Slope (h[α6K61R/α3]β4): 0.8 (0.7–0.9)
- Ratio (change in TxIB IC50 relative to hα6/α3β4) (h[α6K61R/α3]β4): 3.4
- activity at 10 µM (h[α6K61R/α3]β4; [10]): 22.1 ± 4.7%
- Ratio (change in TxIB IC50 relative to hα6/α3β4) (h[α6S10A/α3]β4 [6]): 1.2
- Hill Slope (h[α6S10A/α3]β4 [7]): 0.8 (0.7–0.9)
- Hill Slope (h[α6R63C/α3]β4 [8]): 0.9 (0. 8–1.1)
- Ratio (change in TxIB IC50 relative to hα6/α3β4) (h[α6R63C/α3]β4 [9]): 0.9
- Hill Slope (hα6/α3β4A37S): 0.9 (0.8–1.0)
- Ratio (change in TxIB IC50 relative to hα6/α3β4) (hα6/α3β4A37S): 1.1
- Hill Slope (hα6/α3β4M160K): 0.9 (0.7–1.1)
- Ratio (change in TxIB IC50 relative to hα6/α3β4) (hα6/α3β4M160K): 1.5
- Hill Slope (h[α6N58K/α3]β4): 0.9 (0.8–1.1)
- Ratio (change in TxIB IC50 relative to hα6/α3β4) (h[α6N58K/α3]β4): 0.9
